From US6291247A, “Methods of screening for factors that disrupt neurotrophin conformation and reduce neurotrophin biological activity” (priority 1996, dated 2001)
Entries after “also recorded” stand apart in the source; their conditions may differ. Bridges are numbered along the chain shown (N, C = ends).

Legend:
[1] = tested on: dorsal root ganglion (DRG) neurons; assay: NGF-dependent neurite growth of ED8 chick DRG neurons (FIG. 6, Terasaki plates); assay type: cell-based
Method: FIG. 6 is a graph showing the ability of R11 to inhibit the activity of NGF in vitro using a biological assay system. […] Dissociated cells enriched for sensory neurons were prepared from embryonic day 8 (ED8) chick dorsal root ganglion (DRG) as described (Sutter et al., J. Biol. Chem. 254: 5972-5982 (1979)). Neurons were seed into wells of Terasaki plates treated sequentially with poly-D-lysine and laminin at a density of 800-1000 cells/well in "synthetic" Dulbecco's modified Eagle medium (Bottenstein et al., Proc. Natl. Acad. Sci. USA 76: 514-517 (1979)) containing 1% fetal calf serum and NGF at […]. The cells were incubated with the additives indicated at 37° C. in a 5% CO2 atmosphere At 18-20 hours, the cells were fixed in 4% formaldehyde in phosphate-buffered saline and scored for neurite growth. The cells on the entire lower horizontal surface of the well were counted using an inverted microscope fitted with phase contrast optics. A neurite was scored if its caliber from origin to terminal was constant and its length was equal to or greater than 1.5 cell body diameters. Neurite growth was corrected for background (no NGF) growth in the presence and absence of peptide.
Such a profile is not typical of a competitive inhibitor. That is, a different dose response profile would be expected if R11 were simply competing with NGF for binding to a receptor. Neither of the less constrained synthetic Intermediates of R11, i.e., R11 (linear) or R11 (monocyclic), was as effective in blocking NGF-dependent neurite growth concentrations up to 200 μM.

NGF [2] = biological target: T1, NGF (Mus musculus, UniProt P01139); assay: Cross-linking of NGF protomers in a cell-free system (Example 6); assay type: biochemical
T1 construct: homodimer
Description: That is, under denaturing conditions, NGF normally dissociates and electrophoreses as a monomer (FIG. 8, lane 1). In contrast, native NGF dimers that had been covalently cross-linked by BS^3 were unable to dissociate and were resolved from free monomer as a more slowly migrating band on the gel (FIG. 8, lane 2).

NT-3 = settings: Rashid et al. 1995; cited from earlier work
DRG neurons [3] = assay: NT-3-dependent neurite outgrowth of DRG neurons; assay type: cell-based, chick; settings: n = 8
Method: (§1) Dissosiated cells enriched for sensory neurons were prepared from ED8 chick DRG as described (Dostaler, S. M. et al. Characterization of a distinctive motif of the low molecular weight neurotrophin receptor that modulates NGF-mediated neurite growth. Eur. J. Neurosci. 8, 870-879 (1996)). Neurons were seeded at a density of 800-1000 cells/well in Ham's F-12 containing 5% FCS and NGF at 10 pM into wells of Terasaki plates treated with polyysine. The cells were incubated with the indicated additives at 37° C. in a 5% CO2 atmosphere. The cells on the entire lower horizontal surface of the well were scored for neurite growth at 18-20 hours using an inverted microscope fitted with phase contrast optics. A neurite was scored if its caliber from the origin to terminal was constant and its length was equal to or greater than 1.5 cell body diameters. Neurite growth was corrected for background (no NGF).
(§2) Human recombinant BDNF and human recombinant NT-3 were obtained from Alomone Laboratories (Israel). The iodination, crosslinking, and binding experiments using BDNF and NT-3 were performed using the methods described above for NGF. Neurite outgrowth assays were performed as described in the presence of 4.0 nM NT-3 or 8.0 nM BDNF.

NGF [4] = biological target: T1, NGF; assay: NGF protomer crosslinking with BS3 (NGF conformation), metal ions; assay type: biochemical
Method: For crosslinking NGF […], 0.4 mM BS^3 was added to the mixture and incubated for 30 minutes at 25° C. […] For CD studies, NGF (50 μg/ml) was dissolved in 50 mM Tris-HCl buffer and spectra recorded using a computer controlled Jasco J-600 spectropolarimeter. Samples were acquired in the absence or presence of Zn^2+ (100 μM) at 22° C. in a 2 mm quartz cell averaged over eight scans. Modification of His residues by DEPC was carried out as previously described, where the molar excess of DEPC added and the extent of reaction was determined by evaluating the loss of binding activity of the modified product.

p75^NTR = assay: 125I-NT-3 binding to p75NTR; settings: 100 μM Zn2+, n = 3; 120 min
Method: Full length (1-118) mouse NGF purified by HPLC from 2.5S NGF (purity greater than 95%) was obtained from Cedarlane Laboratories (Toronto, Ont). The iodination of NGF was performed as previously described (Sutter, A, Riopelle, R. J., Harris-Warrick, R. M. & Shooter, E. M. Nerve growth factor receptors. J. Biol. Chem. 254, 5972-5982 (1979)). […] PC12 cells were grown in RPMI with 10% heat inactivated donor horse serum and 5% fetal calf serum. Each data point was set up in a single tube containing ^125 I-NGF (at the required concentration), 400,000 cells (for a final call concentration of 10^6 /ml), BDNF (at 40 nM for TrkA binding) and NGF (at 10 nM for non-specific binding) as required. The tubes were incubated for 2 hr at 4° C. and 100 μl aliquots (providing triplicate data points for each sample) were transferred to 400 μl microcentrifuges containing 200 μl of 10% glycerol in HKR. Tubes were centrifuged for 2 minutes at 5,000 rpm, the tip containing the cell pellet cut off and radioactivity bound to the cells was determined.
as §2

DRG neurons [5] = assay: NGF-mediated neurite outgrowth of DRG neurons, metal ions; assay type: cell-based, chick; settings: 50 and 100 μM
Method: as §1

TrkA = tested on: T2, TrkA; assay: Binding of 125I-NGF to TrkA on PC12 cells (p75NTR blocked with BDNF); set-up: species or system rat; settings: 100 μM; in presence of 40 nM BDNF; ± SEM; 120 min
T2 construct: Receptor cross-linking studies were performed on PC12 rat pheochromocytoma cells; endogenous in cells; host or cells: PC12 rat pheochromocytoma cells (ATCC CRL 1721)
Method: (§3) PC12 cells were grown in RPMI with 10% heat inactivated donor horse serum and 5% fetal calf serum. […] The tubes were incubated for 2 hr at 4° C. and 100 μl aliquots (providing triplicate data points for each sample) were transferred to 400 μl microcentrifuges containing 200 μl of 10% glycerol in HKR. Tubes were centrifuged for 2 minutes at 5,000 rpm, the tip containing the cell pellet cut off and radioactivity bound to the cells was determined.

p75^NTR and TrkA [6] = biological target: T3, p75^NTR and TrkA (Mus musculus, UniProt P01139); assay: Binding of 125I-NGF to PC12 cells (p75NTR + TrkA); set-up: species or system rat; settings: 120 min; for steady-state specific binding of 125I-NGF (0.5 nM) to p75NTR and TrkA: ± SEM
T3 construct: these cells express both NGF receptor types; endogenous in cells; host or cells: PC12 rat pheochromocytoma cells
Method: as §3

p75^NTR and TrkA [7] = assay: Binding of 125I-NGF to PC12 cells (p75NTR + TrkA); set-up: species or system rat; settings: above 100 μM
Method: as §3

p75^NTR and TrkA [8] = tested on: T4, p75^NTR and TrkA; assay: Binding of 125I-NGF to PC12 cells (p75NTR + TrkA); set-up: species or system rat; settings: 100 μM; CaEDTA together with Zn2+
T4 construct: these cells express both NGF receptor types; endogenous in cells; host or cells: PC12 rat pheochromocytoma cells
Method: as §3
T4 sequence (P01139 122-239): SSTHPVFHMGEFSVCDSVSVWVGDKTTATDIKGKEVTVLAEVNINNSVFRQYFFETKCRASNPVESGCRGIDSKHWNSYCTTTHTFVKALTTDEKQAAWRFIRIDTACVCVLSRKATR

T1 sequence (P01139 122-239): as above
T3 sequence (P01139 122-239): as above
T2 sequence (P01139 122-239): as above

Q: For “NH2 -Cys-Gly-Ser-Glu-Val-Pro-Asn-Ser-Ala-Arg-Cys-Cys-Val-Cys-OH (H-CGSEVPNSARCCVC-OH; disulfide 1-14, 11-12) [R11, bicyclic peptide of NGF residues 68-58/108-110, two disulfide bonds]”, which “Block of NGF-mediated neurite growth” value ([1]; 100 μM) is on record?
A: The value was 70%.

Q: What about the IC50 ([1]; ED8 chick DRG neurons, FIG. 6, read-out: IC50, inhibition of NGF-dependent neurite growth) of the same compound?
A: The IC50 was 10 µM.

Q: And the “Block of NGF-mediated neurite growth” value ([1]; concentration similar to 200 μM)?
A: The value was “virtually all”.

Q: What about the “NGF protomer cross-linking to BSA” value (NGF [2]; 100 μM R11) of the same compound?
A: The value was “increased dramatically”.

Q: What about the “Cross-linking of NGF promoters by BS3” value (NGF [2]; 100 μM R11, cell-free) of the same compound?
A: Its value is “reduced almost to the point of elimination; also recorded: loss of NGF dimer”.

Q: What about the “Antagonism of NT-3 in vitro” value (NT-3) of the same compound?
A: Its value is “effective antagonist”.

Q: What does the source list for `[Zn+2]` [Zn^2+]?
A: Neurite Outgrowth, NT-3 (4.0 nM) (DRG neurons [3]; 30 μM Zn2+): 79.9 ± 13.8 % Maximum process bearing neur; Neurite Outgrowth, NT-3 (4.0 nM) (DRG neurons [3]; 50 μM Zn2+): 18.4 ± 9.6 % Maximum process bearing neur; Crosslinking of 125I-NGF to larger complexes (BSA or ovalbumin) (NGF [4]): promoted; NGF monomer crosslinking by BS3 (NGF [4]; 0.1 nM 125I-NGF, CaEDTA together with Zn2+): NGF monomer crosslinking was inhibited; NGF Protomer Conformation (active/inactive) (NGF [4]; 100 μM): active; Crosslinking of NGF promoters after His modification (DEPC) (NGF [4]; DEPC-modified NGF): not affected by Zn^2+; also recorded: abolished; % Maximum p75NTR binding, 125I-NT-3 (p75^NTR): 13.3 ± 9.5 % Maximum binding; NGF-induced neurite extension (DRG neurons [5]): inhibited neurite extension; steady-state specific binding of 125I-NGF (0.5 nM) to TrkA (TrkA): 19 ± 15 % Control; steady-state specific binding of 125I-NGF (0.5 nM) to p75NTR and TrkA (p75^NTR and TrkA [6]; 10 μM): 88 ± 13 % Control; steady-state specific binding of 125I-NGF (0.5 nM) to p75NTR and TrkA (p75^NTR and TrkA [6]; 30 μM): 82 ± 10 % Control; steady-state specific binding of 125I-NGF (0.5 nM) to p75NTR and TrkA (p75^NTR and TrkA [6]; 50 μM): 44 ± 13 % Control; Total Binding to PC12 cells (p75^NTR and TrkA [6]; 100 μM, 125I-NGF): 21 ± 5 % control; steady-state specific binding of 125I-NGF (0.5 nM) to p75NTR and TrkA (p75^NTR and TrkA [6]; 100 μM): 19 ± 9 % Control; Non-specific binding of 125I-NGF (p75^NTR and TrkA [7]): altered non-specific binding; Inhibition of 125I-NGF binding (p75^NTR and TrkA [8]): effectively blocked binding
